Measured values: US8044236B2, “Carboxilic acid derivatives” (Institute of Medicinal Molecular Design, Inc., priority 2006, dated 2011)

Columns and labels:
recombinant human PAI-1 [1] = molecular target: T1, recombinant human PAI-1 (Homo sapiens, UniProt P05121); assay: biochemical
Experimental: <Compotion of pH7.4 HEPES Buffer>
(§1) • 0.1 M HEPES • 0.1 M NaCl • […] • 0.1% Polyethylene glycol 8,000 (Hampton Research Corporation) • 2 mM Dimethyldecylphoshine oxide [Apo-10] (Fluka Corporation) [Results]

recombinant rat PAI-1 = molecular target: T2, recombinant rat PAI-1 (Rattus norvegicus, UniProt P20961); assay: biochemical
T2 sequence (P20961 24-402): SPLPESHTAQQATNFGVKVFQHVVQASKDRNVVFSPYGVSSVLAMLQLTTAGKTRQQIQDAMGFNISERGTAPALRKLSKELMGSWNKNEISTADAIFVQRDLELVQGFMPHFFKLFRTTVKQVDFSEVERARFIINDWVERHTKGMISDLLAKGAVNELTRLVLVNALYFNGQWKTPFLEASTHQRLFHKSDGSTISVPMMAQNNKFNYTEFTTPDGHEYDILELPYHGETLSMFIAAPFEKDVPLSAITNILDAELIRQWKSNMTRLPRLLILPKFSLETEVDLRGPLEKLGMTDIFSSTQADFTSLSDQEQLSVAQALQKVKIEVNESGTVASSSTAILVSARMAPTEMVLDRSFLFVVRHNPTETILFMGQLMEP
Experimental: as §1

[2] = tested on: Crlj:CD(SD) rat AV shunt model; assay: Test Example 5: anti-thrombotic activity (rat AV shunt model); type: in vivo; details: oral, 10 mg/kg/day for 4 days, mean ± S.E., vehicle 72.7 ± 2.7, *p < 0.05
Experimental: The administration on the 4th day was carried out about 1 hour before the following perfusion start. Put a 6.5 cm silk thread (Matsuda Ika Kogyou; […] On the connected part where the silk thread is through, parafilm was wrapped around to avoid blood leakage. […] Saline was filled in the above catheter, and both ends of the catheter were inserted in right carotid artery and […], respectively, and blood was circulated. 30 minutes later, the catheter was pinched with forceps to stop blood flow, and tube parts where the silk thread is through were cut and removed. The silk thread was carefully removed from the tubes, remaining wet weight was weighed after removing the liquid phase by filter paper, and further subtraction of the weight of the silk thread, gives the thrombus weight. For the thrombus weight in each group, an average value±standard error (S.E.) was calculated. […] For the test, the SAS System Release 8.2 (TS2M0) for Windows (Registered Trademark) (SAS Institute Inc.) and its coorperative system […] Ver. 7.10 (Arm Systex Co. Ltd.) were employed.

recombinant human PAI-1 [3] = molecular target: T1, recombinant human PAI-1; assay: Test Example 1: human PAI-1 inhibitory activity (tPA fluorogenic substrate, pH7.5 Tris buffer); type: biochemical; design: purchased Molecular Innovations, Inc; details: for Inhibition Rate of Human PAI-1 Activity (%): Tris buffer pH7.5
Experimental: In a 96-well multiplate (black), 1.5 μl of DMSO solution of the present application compound prepared to achieve 80-fold the test concentration (=the final concentration when fluorogenic substrate is added) was diluted with 52.5 μl of pH7.5 Tris buffer. […] Furthermore, 30 μl of 800 IU/ml two-chain tPA (Activity Standard; American diagnostics, inc.) prepared by Tris buffer was added, and the mixed solution was incubated for 15 minutes at room temperature. To this, 30 μl of 400 μM fluorogenic substrate (Pyr-Gly-Arg-MCA; Peptide Institute, Inc.) for tPA prepared by Tris buffer was added and reacted for 30 minutes at room temperature.
<Composition of pH7.5 Tris Buffer)

[4] = read-out: Inhibition Rate of Rat PAI-1 Activity (%)
[5] = pH 7.5, read-out: Inhibition Rate of Human PAI-1 Activity (%)

T1 sequence (P05121 24-402): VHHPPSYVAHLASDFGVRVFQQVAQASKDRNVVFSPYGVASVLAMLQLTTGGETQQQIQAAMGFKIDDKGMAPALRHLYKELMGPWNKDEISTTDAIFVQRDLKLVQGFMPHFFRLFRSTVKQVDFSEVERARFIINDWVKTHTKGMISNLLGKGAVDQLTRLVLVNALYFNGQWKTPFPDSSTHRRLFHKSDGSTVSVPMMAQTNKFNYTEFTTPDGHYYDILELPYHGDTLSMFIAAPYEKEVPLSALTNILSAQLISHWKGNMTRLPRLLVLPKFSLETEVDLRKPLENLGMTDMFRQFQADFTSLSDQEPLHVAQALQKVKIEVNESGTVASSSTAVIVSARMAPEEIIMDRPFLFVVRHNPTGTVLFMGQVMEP

Inhibition Rate of Human PAI-1 Activity (%) (recombinant human PAI-1 [3]; compound 5 μM)	Inhibition Rate of Human PAI-1 Activity (%) (recombinant human PAI-1 [3]; compound 10 μM)	Inhibition Rate of Human PAI-1 Activity (%) (recombinant human PAI-1 [3]; compound 25 μM)	Structure (SMILES)	further results
19	32	74	O=C(O)CCc1cc(-c2ccccc2)ccc1OCc1ccc(OC(F)(F)F)cc1 [Compound 58, 3-{4-[4-(trifluoromethoxy)benzyloxy]biphenyl-3-yl}propanoic acid]	
21	46	95	COc1ccccc1-c1ccc(OCc2ccc(C(C)(C)C)cc2)c(/C=C/C(=O)O)c1 [Compound 61, (E)-3-{4-[4-(tert-butyl)benzyloxy]-2′-methoxybiphenyl-3-yl}propenoic acid]	
49	74	95	CC(C)(C)c1ccc(COc2ccc(-c3cccc(OC(F)(F)F)c3)cc2CCC(=O)O)cc1 [Compound 71, 3-{4-[4-(tert-butyl)benzyloxy]-3′-(trifluoromethoxy)biphenyl-3-yl}propanoic acid]	
37	70	94	CC(C)(C)c1ccc(-c2ccc(OCc3ccccc3OC(F)(F)F)c(CCC(=O)O)c2)cc1 [Compound 74, 3-{4′-(tert-butyl)-4-[2-(trifluoromethoxy)benzyloxy]biphenyl-3-yl}propanoic acid]	
47	71	95	CC(C)(C)c1ccc(-c2ccc(OCc3ccc(C(F)(F)F)cc3)c(CCC(=O)O)c2)cc1 [Compound 77, 3-{4′-(tert-butyl)-4-[4-(trifluoromethyl)benzyloxy]biphenyl-3-yl}propanoic acid]	

The remaining lines, values behind:

Structure (SMILES)	Inhibition Rate of Human PAI-1 Activity (%) (recombinant human PAI-1 [3]; compound 5 μM)	Inhibition Rate of Human PAI-1 Activity (%) (recombinant human PAI-1 [3]; compound 10 μM)	Inhibition Rate of Human PAI-1 Activity (%) (recombinant human PAI-1 [3]; compound 25 μM)	further results
CC(C)(C)c1ccc(COc2ccc(-c3ccc(OC(F)(F)F)cc3)cc2CCC(=O)O)cc1 [Compound 5, 3-{4-[4-(tert-butyl)benzyloxy]-4′-(trifluoromethoxy)biphenyl-3-yl}propanoic acid]				IC50 (recombinant human PAI-1 [1]): 1270 nM; IC50 (recombinant rat PAI-1): 2800 nM; Thrombus Weight (mg) [2]: 57.5 ± 5.0* mg
CC(C)(C)c1ccc(COc2ccc(-c3ccc(OC(F)(F)F)cc3)cc2CC(=O)O)cc1 [Compound 9, {4-[4-(tert-butyl)benzyloxy]-4′-(trifluoromethoxy)biphenyl-3-yl}acetic acid]				IC50 (recombinant human PAI-1 [1]): 1300 nM; IC50 (recombinant rat PAI-1): 2070 nM
CC(C)(C)c1ccc(Oc2ccc(-c3ccc(OC(F)(F)F)cc3)cc2CCC(=O)O)cc1 [Compound 13, 3-{4-[4-(tert-butyl)phenoxy]-4′-(trifluoromethoxy)biphenyl-3-yl}propanoic acid]				IC50 (recombinant human PAI-1 [1]): 1170 nM; IC50 (recombinant rat PAI-1): 2170 nM; inhibition at 10 µM (recombinant rat PAI-1; [4]): > 99%
CC(C)(C)c1ccc(COc2ccc(-c3ccc(OC(F)(F)F)cc3)cc2N(Cc2ccccc2)C(=O)C(=O)O)cc1 [Compound 59, N-benzyl-N-{4-[4-(tert-butyl)benzyloxy]-4′-(trifluoromethoxy)biphenyl-3-yl}oxamic acid]				inhibition at 3 µM (recombinant human PAI-1 [1]; pH 7.4, read-out: Inhibition Rate of Human PAI-1 Activity (%)): > 99%; inhibition at 3 µM (recombinant rat PAI-1; [4]): > 99%; inhibition at 10 µM (recombinant rat PAI-1; [4]): > 99%; inhibition at 25 µM (recombinant human PAI-1 [3]; [5]): 81%
COc1ccccc1-c1ccc(OCc2ccc(C(C)(C)C)cc2)c(CCC(=O)O)c1 [Compound 62, 3-{4-[4-(tert-butyl)benzyloxy]-2′-methoxybiphenyl-3-yl}propanoic acid]	22	47	91	
COc1ccc(COc2ccc(-c3ccc(OC(F)(F)F)cc3)cc2CCC(=O)O)cc1 [Compound 66, 3-[4-(4-methoxybenzyloxy)-4′-(trifluoromethoxy)biphenyl-3-yl]propanoic acid]	15	35	25	
CC(C)(C)c1ccc(COc2ccc(-c3ccc(OC(F)(F)F)cc3)cc2CCc2nnn[nH]2)cc1 [Compound 69, 5-{2-{4-[4-(tert-butyl)benzyloxy]-4′-(trifluoromethoxy)biphenyl-3-yl}ethyl}-1H-tetrazole]				inhibition at 10 µM (recombinant human PAI-1 [3]; [5]): 34%; inhibition at 25 µM (recombinant human PAI-1 [3]; [5]): > 99%
CC(C)(C)c1ccc(COc2ccc(-c3cccc(OC(F)(F)F)c3)cc2/C=C/C(=O)O)cc1 [Compound 70, (E)-3-{4-[4-(tert-butyl)benzyloxy]-3′-(trifluoromethoxy)biphenyl-3-yl}propenoic acid]	38	72	93	
CC(C)(C)c1ccc(COc2ccc(-c3ccccc3OC(F)(F)F)cc2/C=C/C(=O)O)cc1 [Compound 72, (E)-3-{4-[4-(tert-butyl)benzyloxy]-2′-(trifluoromethoxy)biphenyl-3-yl}propenoic acid]	42	72	93	
CC(C)(C)c1ccc(COc2ccc(-c3ccccc3OC(F)(F)F)cc2CCC(=O)O)cc1 [Compound 73, 3-{4-[4-(tert-butyl)benzyloxy]-2′-(trifluoromethoxy)biphenyl-3-yl}propanoic acid]	52	80	>99	
CC(C)(C)c1ccc(-c2ccc(OCc3cccc(OC(F)(F)F)c3)c(CCC(=O)O)c2)cc1 [Compound 75, 3-{4′-(tert-butyl)-4-[3-(trifluoromethoxy)benzyloxy]biphenyl-3-yl}propanoic acid]	40	74	95	
CCCCc1ccc(COc2ccc(-c3ccc(C(C)(C)C)cc3)cc2CCC(=O)O)cc1 [Compound 78, 3-[4′-(tert-butyl)-4-(4-butylbenzyloxy)biphenyl-3-yl]propanoic acid]	51	80	93	
